In patent US8076485B2, “Methylphenidate derivatives and uses of them” (priority 2005, dated 2011):

Key:
Type in all cases: cell-based, human
[1] = test system: peripheral blood lymphocytes (PBL); assay: PBL proliferation assay (Promega cell titer, OD 530 nm); details: for proliferation of PBL stimulated with PHA (OD at 530 nm): Example 1, donor GR283; for proliferation of PBL, both unstimulated and stimulated with PHA (OD at 530 nm): Dex 10 μM
Experimental: Whole blood was drawn from GR283, a human volunteer with known allergies, into a glass vacutainer tube containing no anticoagulant. This blood was allowed to clot, and the serum was removed by centrifugation and then heat inactivated by placing it in a water bath at 56° C. for 30 minutes. Whole blood from GR283 was also drawn into a glass vacutainer tube containing heparin and used for peripheral blood lymphocytes (PBL) isolation as follows. Whole blood was layered over room temperature Histopaque 1077 solution and centrifuged at 2000 rpm for 15 minutes at room temperature. Cells at the plasma-Histopaque interface were then removed and washed with culture medium (IMDM medium with 10% heat-inactivated GR283 serum plus 1% penicillin/streptomycin) at 37° C.
Then, GR283's PBL in culture medium were added to the wells to give a final concentration of 150,000 cells per well, and the plates were incubated at 37° C., 5% CO2 for 24 hours. After this incubation, phytohemagglutinin (PHA) in culture medium was added to give final concentrations of 2 μg/ml, 5 μg/ml or 20 μg/ml, final total volume of 200 μl/well, and the cells were incubated for an additional 72 hours at 37° C., 5% CO2. All cultures were performed in triplicate.
Cell proliferation was assayed by adding 20 μl of Promega cell titer solution to each well and incubating the plate for an additional 4 hours. Promega cell titer solution is a solution containing a tetrazolium dye that is reduced by living cells to a formazan dye, and this reduction is proportional to the number of living cells present in the well. After the 4-hour incubation, the optical density (OD) at 530 nm of each well was measured. The OD at 530 nm for blank wells containing no cells was subtracted from the OD of the experimental wells.
Then, GR467's PBL in culture medium were added to the wells to give a final concentration of 150,000 cells per well, and the plates were incubated at 37° C., 5% CO2 for 24 hours. After this incubation, PHA was added to give a final concentration of 2 μg/ml, final total volume of 200 μl/well, and the cells were incubated for an additional 72 hours at 37° C., 5% CO2. All cultures were performed in triplicate.
Then, GR191's PBL in culture medium were added to the wells to give a final concentration of 150,000 cells per well, and the plates were incubated at 37° C., 5% CO2 for 24 hours. After this incubation, PHA was added to give final concentrations of 2 μg/ml and 5 μg/ml, final total volume of 200 μl/well, and the cells were incubated for an additional 72 hours at 37° C., 5% CO2. All cultures were performed in triplicate.

IL-13 = IL-13 release by PBL (ELISA); details: for IL-13 release induced by PHA: Example 2, GR467 PBL, 15 μg/ml Cpd II, 15 μg/ml MP, 10 μM Dex, PHA 2 μg/ml, 96 hours, FIG. 3
Experimental: (§1) After this incubation, PHA was added to give a final concentration of 2 μg/ml, and the cells were incubated for an additional 96 hours at 37° C., 5% CO2. All cultures were performed in triplicate. Cells were then removed by centrifugation at 1000 rpm for 10 minutes, and the culture medium collected.
(§2) Release of IL-13 and interferon gamma (IFNγ) into the culture medium was measured by ELISA. To perform the ELISA, matched pairs of antibodies against human IL-13 and IFNγ were purchased from Pierce Biotechnology and Biosource, respectively. ELISA strip well plates were coated with 10 μg/ml of antibody (in phosphate-buffered saline (PBS)) to IL-13 and 4 μg/ml of antibody to IFNγ (in PBS) overnight at room temperature. The plates were then blocked using a 4% BSA solution in PBS for one hour, followed by the addition of 50 μl of experimental culture medium per well in duplicate. The plates were incubated at room temperature for one hour and then washed using 50 mM Tris pH 8.0 with 0.1% Tween 20. Then, solutions of 400 ng/ml biotinylated second antibody to IL-13 and 500 ng/ml biotinylated second antibody to IFNγ were made in blocking buffer, and 100 μl were added per well. The plates were incubated for 1 hour and washed again. A 1:8000 dilution of Strepavidin HRP (Pierce Biotechnology) conjugate was made in blocking buffer, and 100 μl were added to the wells and incubation continued for 30 minutes. A final wash step was performed, after which 100 μl Pierce Biotechnology TMB substrate were added to each well. Color was developed for 30 minutes and stopped by adding 100 μl 0.18 NH2SO4. OD was determined using microplate reader with a 450 nm filter.
After this incubation, PHA was added to give a final concentration of 5 μg/ml, and the cells were incubated for an additional 72 hours at 37° C., 5% CO2. All cultures were performed in triplicate. Cells were then removed by centrifugation at 1000 rpm for 10 minutes.
The supernatants were collected, and the concentrations of IL-13 and tumor necrosis factor alpha (TNFα) in the supernatants were measured by ELISA. The IL-13 ELISA was performed as described in Example 2.

IFNγ = IFNγ release by PBL (ELISA); details: Example 2, GR467 PBL, 15 μg/ml Cpd II, 15 μg/ml MP, 10 μM Dex, FIG. 4; for IFNγ release, cells stimulated with PHA: PHA 2 μg/ml, 96 hours
Experimental: as §1, §2

IL-8 = IL-8 release by TNFα-stimulated HUVECs (ELISA); details: for IL-8 release stimulated by TNFα: HUVECs, 10 ng/ml TNFα, Cpd II 1-30 μg/ml, MP 15 μg/ml, Dex 10 μM, LY 294002 10 μM
Experimental: Passage 4 HUVECs, human source lot number 8710 (obtained from ATCC), were put into the wells of a 24-well tissue culture plate at 5,000 cells/well in EGM-2 medium and cultured for 72 hours at 37° C. and 5% CO2. […] After incubation for 1 hour at 37° C. and 5% CO2, TNFα (Pierce) was added to give a final concentration of 10 ng/ml, and the cells were incubated for an additional 18 hours at 37° C. and 5% CO2. After this incubation, the supernatants were collected, and the amount of IL-8 in the supernatants determined by ELISA as described in Example 4.

[2] = Cpd II and MP 5, 15, 50 μg/ml, Dex 10 μg/ml, PHA 2, 5, 20 μg/ml, FIGS. 1A-C
[3] = Example 2, donor GR467, Cpd II 5, 15, 25 μg/ml, MP 15 μg/ml, PHA 2 μg/ml, FIG. 2
[4] = Example 3, donor GR191, Cpd II 5, 15, 25, 50 μg/ml, MP 50 μg/ml, PHA 2 and 5 μg/ml, FIGS. 5A-B
[5] = Homo sapiens, HUVEC, 18 h, read-out: % inhibition (IL-8)

Row | SMILES | proliferation of PBL stimulated with PHA (OD at 530 nm) [1, 2] | proliferation of PBL, both unstimulated and stimulated with PHA (OD at 530 nm) [1, 3] | proliferation of PBL, both unstimulated and stimulated with PHA (OD at 530 nm) [1, 4] | IL-13 release induced by PHA (IL-13) | release of IL-13 from PHA-stimulated PBL (IL-13; Example 3, GR191 PBL, Cpd II 15 and 50 μg/ml, Dex 10 μM, PHA 5 μg/ml, 72 hours, FIG. 6) | IFNγ release, unstimulated cells (IFNγ) | IFNγ release, cells stimulated with PHA (IFNγ) | IL-8 release stimulated by TNFα (IL-8) | inhibition at 1 µg/mL (IL-8; [5]) [%] | inhibition at 5 µg/mL (IL-8; [5]) [%] | inhibition at 10 µg/mL (IL-8; [5]) [%] | inhibition at 15 µg/mL (IL-8; [5]) [%] | inhibition at 30 µg/mL (IL-8; [5]) [%] | proliferation of PBL stimulated with PHA (OD at 530 nm) ([1]; highest MP dose (50 μg/ml) and lowest PHA dose (2 μg/ml)) | IL-13 release induced by PHA (IL-13; listed as Methylphenidate) | IFNγ release, cells stimulated with PHA (IFNγ; listed as Methylphenidate)
1 | COC(=O)C(c1ccc(-c2ccccc2)cc1)C1CCCCN1 (stereo not drawn) [Cpd II] | significantly inhibited the proliferation of PBL stimulated with PHA in a dose-dependent manner | significantly inhibited the proliferation of PBL | significantly inhibited the proliferation of PBL | significantly inhibited IL-13 release | significantly inhibited the release of IL-13 | significantly inhibited IFNγ release | significantly inhibited IFNγ release | decreased IL-8 release stimulated by TNFα in a dose-dependent manner | -51.1 | 3.08 | 38.2 | 41.7 | 86.9 | – | – | –
2 | COC(=O)C(c1ccccc1)C1CCCCN1 (stereo not drawn) [methylphenidate] | did not significantly reduce the proliferation | did not | did not | increased the release of IL-13 | – | had some effect | increased the release of IFNγ | slightly decreased IL-8 release | – | – | – | 15.2 | – | showed a significant effect | did not inhibit the release of IL-13 | did not significantly suppress the release of IFNγ
